Laboratory results as given in PubChem BioAssay AID248 (DTP/NCI, 2004).
Where “and” joins values, the source holds several entries; their conditions need not be identical. Equal values may be shown once. Toxic doses and inconclusive results are not listed. Cut-off read from the data, not from the text of the source: active = T/C of 150% or more; inactive = T/C below 125%.

Tested on: L1210 leukemia ip in BDF1 mice, survival T/C
Assay: NCI In Vivo Anticancer Drug Screen. Data for tumor model L1210 Leukemia (intraperitoneal) in B6D2F1 (BDF1) mice
Conditions: endpoint: mean survival time, higher = longer survival
How it was run: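 Read-out is survival time, reported as the treated-group measurement over the vehicle-control measurement.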

[1] = dose: 100.0 mg/kg/injection, schedule: Q01DX009 (ip), vehicle: saline
[2] = dose: 100.0 mg/kg/injection, schedule: Q04DX002 (ip), vehicle: Klucel (hydroxypropylcellulose) (HPC)
[3] = dose: 200.0 mg/kg/injection, schedule: Q04DX002 (ip), vehicle: Klucel (hydroxypropylcellulose) (HPC)
[4] = dose: 100.0 mg/kg/injection, schedule: Q01DX001 (ip), vehicle: saline
[5] = dose: 200.0 mg/kg/injection, schedule: Q01DX001 (ip), vehicle: saline
[6] = dose: 100.0 mg/kg/injection, schedule: Q01DX009 (ip), vehicle: Klucel (hydroxypropylcellulose) (HPC)
[7] = dose: 200.0 mg/kg/injection, schedule: Q01DX009 (ip), vehicle: Klucel (hydroxypropylcellulose) (HPC)
[8] = dose: 400.0 mg/kg/injection, schedule: Q01DX009 (ip), vehicle: Klucel (hydroxypropylcellulose) (HPC)
[9] = dose: 100.0 mg/kg/injection, schedule: Q01DX001 (sc), vehicle: steriod suspending solution
[10] = dose: 200.0 mg/kg/injection, schedule: Q01DX001 (sc), vehicle: steriod suspending solution
[11] = dose: 50.0 mg/kg/injection, schedule: Q01DX009 (ip), vehicle: saline
[12] = dose: 400.0 mg/kg/injection, schedule: Q01DX001 (sc), vehicle: steriod suspending solution

Measured: T/C

CN(C)N=Nc1ccc2c(c1)C(=O)NC2=O
inactive: dose: 100.0 mg/kg/injection, schedule: Q04DX003 (ip), vehicle: saline with Tween-80 96 % of control | dose: 200.0 mg/kg/injection, schedule: Q04DX003 (ip), vehicle: saline with Tween-80 99 % of control | dose: 400.0 mg/kg/injection, schedule: Q04DX003 (ip), vehicle: saline with Tween-80 99 % of control

Cc1ccc(S)cc1
inactive: [1] 87 % of control

CC(=O)N\C(N)=N/N=C\C(C)=N/N=C(\N)NC(C)=O
inactive: dose: 15.0 mg/kg/injection, schedule: Q01DX Z (ip), vehicle: carboxymethylcellulose (CMC) 94 % of control | dose: 30.0 mg/kg/injection, schedule: Q01DX Z (ip), vehicle: carboxymethylcellulose (CMC) 94 % of control | dose: 60.0 mg/kg/injection, schedule: Q01DX Z (ip), vehicle: carboxymethylcellulose (CMC) 97 % of control and 100 % of control | dose: 120.0 mg/kg/injection, schedule: Q01DX Z (ip), vehicle: carboxymethylcellulose (CMC) 94 % of control and 102 % of control | dose: 240.0 mg/kg/injection, schedule: Q01DX Z (ip), vehicle: carboxymethylcellulose (CMC) 109 % of control

CN(C)C(=S)SCCC(=O)O
inactive: [2] 94 % of control | dose: 100.0 mg/kg/injection, schedule: Q04DX002 (ip), vehicle: saline 103 % of control | [3] 88 % of control | dose: 200.0 mg/kg/injection, schedule: Q04DX002 (ip), vehicle: saline 100 % of control | dose: 400.0 mg/kg/injection, schedule: Q04DX002 (ip), vehicle: saline 100 % of control

Clc1ccc2c(CBr)ccnc2c1
inactive: [4] 98 % of control | [5] 104 % of control

COc1cc(C(=O)NC2CC(C)CC(C)(C)C2)cc(OC)c1OC (stereo unspecified)
inactive: [6] 91 % of control | [2] 92 % of control | [7] 91 % of control | [3] 98 % of control | [8] 91 % of control | dose: 400.0 mg/kg/injection, schedule: Q04DX002 (ip), vehicle: Klucel (hydroxypropylcellulose) (HPC) 103 % of control

Oc1cc(O)c2c(c1)OC(c1ccc(O)c(O)c1)C(O)C2c1c(O)cc(O)c2c1OC(c1ccc(O)c(O)c1)C(O)C2 (stereo unspecified)
inactive: dose: 100.0 mg/kg/injection, schedule: Q01DX009 (ip), vehicle: saline with Tween-80 101 % of control | dose: 200.0 mg/kg/injection, schedule: Q01DX009 (ip), vehicle: saline with Tween-80 97 % of control | dose: 400.0 mg/kg/injection, schedule: Q01DX009 (ip), vehicle: saline with Tween-80 93 % of control

CCCCCC(CN(C)C)C(=O)/C=C/c1ccc(Cl)cc1 (stereo unspecified)
inactive: dose: 12.5 mg/kg/injection, schedule: Q01DX009 (sc), vehicle: other 100 % of control | dose: 25.0 mg/kg/injection, schedule: Q01DX009 (sc), vehicle: other 100 % of control | dose: 50.0 mg/kg/injection, schedule: Q01DX009 (sc), vehicle: other 93 % of control | dose: 50.0 mg/kg/injection, schedule: Q04DX003 (sc), vehicle: steriod suspending solution 95 % of control | dose: 75.0 mg/kg/injection, schedule: Q01DX009 (sc), vehicle: other 98 % of control | [9] 91 % of control | dose: 115.0 mg/kg/injection, schedule: Q01DX009 (sc), vehicle: other 100 % of control | [10] 116 % of control

Cc1ccc2c(c1)CCCN2C
inactive: [11] 96 % of control | [1] 95 % of control | dose: 100.0 mg/kg/injection, schedule: Q04DX003 (ip), vehicle: saline 100 % of control | dose: 200.0 mg/kg/injection, schedule: Q04DX003 (ip), vehicle: saline 94 % of control

CC1CCC2(NC1)OC1CC3C4CC=C5CC(OC(=O)N(CCCl)CCCl)CCC5(C)C4CCC3(C)C1C2C (stereo unspecified)
inactive: [9] 97 % of control | [10] 123 % of control | [12] 97 % of control

CC1C(=O)CCCC1=O
inactive: [6] 101 % of control | [7] 101 % of control | [8] 95 % of control

O=C1NC(CCO)C(=O)NC1CCO (stereo unspecified)
inactive: [11] 97 % of control | [4] 100 % of control | [1] 112 % of control | [5] 97 % of control | dose: 200.0 mg/kg/injection, schedule: Q01DX009 (ip), vehicle: saline 104 % of control | dose: 400.0 mg/kg/injection, schedule: Q01DX001 (ip), vehicle: saline 100 % of control

Cc1ccc(N=Cc2cc(Cl)cc(Cl)c2OC(=O)c2ccccc2)cc1C
inactive: dose: 100.0 mg/kg/injection, schedule: Q04DX002 (ip), vehicle: saline with Tween-80 95 % of control | dose: 200.0 mg/kg/injection, schedule: Q04DX002 (ip), vehicle: saline with Tween-80 92 % of control | dose: 400.0 mg/kg/injection, schedule: Q04DX002 (ip), vehicle: saline with Tween-80 88 % of control

COC(=O)C1(C)CCCC2(C)c3cc(OC)c4c(c3CCC12)C(=O)CCC4 (stereo unspecified)
inactive: [9] 93 % of control | [10] 90 % of control | [12] 98 % of control

COc1ccc(-c2cccc(-c3ccccc3)n2)cc1
inactive: dose: 12.5 mg/kg/injection, schedule: Q04DX003 (ip), vehicle: Klucel (hydroxypropylcellulose) (HPC) 91 % of control | dose: 25.0 mg/kg/injection, schedule: Q01DX009 (ip), vehicle: Klucel (hydroxypropylcellulose) (HPC) 106 % of control | dose: 25.0 mg/kg/injection, schedule: Q04DX003 (ip), vehicle: Klucel (hydroxypropylcellulose) (HPC) 98 % of control | dose: 50.0 mg/kg/injection, schedule: Q01DX009 (ip), vehicle: Klucel (hydroxypropylcellulose) (HPC) 100 % of control | dose: 50.0 mg/kg/injection, schedule: Q04DX003 (ip), vehicle: Klucel (hydroxypropylcellulose) (HPC) 98 % of control | [6] 89 % of control | dose: 100.0 mg/kg/injection, schedule: Q04DX003 (ip), vehicle: Klucel (hydroxypropylcellulose) (HPC) 96 % of control

COc1cccc(C(=O)CC(O)(C(F)(F)F)C(F)(F)F)c1
inactive: dose: 50.0 mg/kg/injection, schedule: Q04DX003 (ip), vehicle: other 100 % of control | dose: 100.0 mg/kg/injection, schedule: Q04DX003 (ip), vehicle: other 96 % of control | dose: 200.0 mg/kg/injection, schedule: Q04DX003 (ip), vehicle: other 98 % of control | dose: 400.0 mg/kg/injection, schedule: Q04DX003 (ip), vehicle: other 104 % of control
